# In patent US20240000765A1, “COMBINATION TREATMENT OF LIVER DISORDERS” (Terns Pharmaceuticals, Inc., priority 2020, published 2024):
# Like-named read-outs stand apart in the source and are kept apart here.
# Key:
# [1] = test system: rat hepatocytes; assay: In vitro metabolic stability in cryopreserved hepatocytes (rat); format: in vitro ADME; conditions: Sprague-Dawley rat hepatocytes; well-stirred liver model
# Method: (§1) In vitro half-life values were determined and scaled to predict hepatic clearance (CLpred) and hepatic extraction using the well-stirred liver model with no correction for plasma protein as described in Obach et al., The Prediction of Human Pharmacokinetic Parameters from Preclinical and In Vitro Metabolism Data, J. of Pharmacology and Experimental Therapeutics, vol. 283, no. 1, pp. 46-58 (1997).
# [2] = Pharmacokinetics assay, dog (IV and oral); format: in vivo, beagle dogs; conditions: beagle dog
# Excerpt: (§2) Results are shown in FIG. 1A (IV administration) and FIG. 1B (oral administration), and in Table 2. […] Smaller Vdss in monkeys is correlated with higher plasma protein binding.
# [3] = test system: mouse model of NASH; assay: Mouse model of NASH (high fat diet + CCl4), Compound 1
# Method: Hematoxylin & Eosin (H&E) and Sirius Red histological staining of liver tissue was used to quantitate NAFLD activity score (NAS), steatosis, ballooning, inflammation and fibrosis. […] Gene expression of RNA was analyzed by RT-qPCR and RNAseq.
# NAS is calculated based upon liver steatosis, inflammation, and ballooning and was determined by analysis of liver tissue histology using H&E stain. […] Hepatocellular ballooning is a form of liver cell injury associated with cell swelling and is also measured by H&E stained liver sections. The ballooning score is calculated as follows: 0-no hepatocyte ballooning; 1-few ballooning hepatocytes; 2-many hepatocytes with prominent ballooning.
# Liver fibrosis was quantified by histological analysis of the percentage of Sirius Red-positive liver sections. […] Liver triglycerides were measured from liver tissue using a biochemical analyzer (Hitachi-700).
# [4] = Metabolism and excretion of radiolabeled (14C) compound; format: in vivo; conditions: SD rats, oral 5 mg/kg or IV 2 mg/kg
# Method: Blood, bile, feces, and urine samples were collected from each rat for up to 168 hours.
# [5] = test system: human hepatocytes; assay: In vitro metabolic stability in cryopreserved hepatocytes (human); format: in vitro ADME; conditions: well-stirred liver model
# Method: as §1
# [6] = Tissue distribution of radiolabeled (14C) compound after oral dose; format: in vivo; conditions: Long-Evans rats, oral 5 mg/kg (100 μCi/kg), up to 168 hours
# Method: Plasma, liver, small intestine, cecum, kidney, lung, heart and skin tissue samples were collected up to 168 hours, and the amount of radioactive material at various time points was measured.
# [7] = Clinical study, Second Study (7 days, 7AC4); conditions: for % 7AC4 suppression at nadir: human subjects
# [8] = PK/PD profile, 7 consecutive daily oral doses; format: in vivo; conditions: cynomolgus monkeys, oral 1 mg/kg, 7 consecutive days
# [9] = Clinical study, First Study (healthy volunteers, 14 days); format: in vivo; conditions: healthy human volunteers, oral daily 5, 75, 200 or 400 mg
# [10] = test system: dog hepatocytes; assay: In vitro metabolic stability in cryopreserved hepatocytes (dog); format: in vitro ADME; conditions: beagle dog hepatocytes; well-stirred liver model
# Method: as §1
# [11] = test system: monkey hepatocytes; assay: In vitro metabolic stability in cryopreserved hepatocytes (monkey); format: in vitro ADME; conditions: cynomolgus monkey hepatocytes; well-stirred liver model
# Method: as §1
# [12] = test system: mouse hepatocytes; assay: In vitro metabolic stability in cryopreserved hepatocytes (mouse); format: in vitro ADME; conditions: well-stirred liver model
# Method: as §1
# [13] = Pharmacokinetics assay, rat (IV and oral); format: in vivo, Sprague-Dawley (SD) rats; conditions: Sprague-Dawley rat, oral 10 mg/kg vs IV 1 mg/kg
# Excerpt: as §2
# [14] = test system: FXR-regulated gene expression in liver and ileum; assay: Mechanism of action: tissue RNA by RT-qPCR and RNAseq after a single oral dose; conditions: C57BL/6 mice, 6 hours; for number of differentially expressed NASH-related genes modulated vs vehicle (liver RNAseq): fold change≥1.5
# Method: The RNA was analyzed by RT-qPCR and RNAseq.
# For RNAseq analysis, mRNA was extracted from total liver and sequenced using standard Illumina library preparation and sequencing protocols. Differentially expressed genes (DEG) were determined using RSEM and edgeR software packages and analyzed using Advaita Bio's iPathwayGuide software.
# [15] = rat, in vivo, iv, 2 mg/kg
# Excerpt: Blood, liver, kidney, and lung tissue samples were collected from the rats to determine a tissue/plasma ratio.
# [16] = molecular target: T1, THRβ (Homo sapiens, UniProt P10828); assay: Binding activity to the thyroxine receptor beta; conditions: ratio of binding IC50
# T1 sequence (P10828 1-461): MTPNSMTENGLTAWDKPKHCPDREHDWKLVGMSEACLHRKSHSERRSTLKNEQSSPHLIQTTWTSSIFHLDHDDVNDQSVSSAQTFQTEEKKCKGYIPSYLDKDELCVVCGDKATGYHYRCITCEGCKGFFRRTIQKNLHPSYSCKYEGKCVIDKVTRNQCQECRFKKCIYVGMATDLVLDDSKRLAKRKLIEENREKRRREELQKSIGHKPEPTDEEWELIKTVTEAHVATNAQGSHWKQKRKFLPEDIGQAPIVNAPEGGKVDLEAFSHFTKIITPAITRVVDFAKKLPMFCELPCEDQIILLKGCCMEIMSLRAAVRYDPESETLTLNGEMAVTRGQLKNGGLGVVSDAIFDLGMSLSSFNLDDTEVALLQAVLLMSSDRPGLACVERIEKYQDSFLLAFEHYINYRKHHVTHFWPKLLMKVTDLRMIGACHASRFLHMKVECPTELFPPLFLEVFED
# [17] = molecular target: T2, THRα (Homo sapiens, UniProt P10827); assay: Binding activity to THRα; conditions: read-out: IC50 THRα binding force
# T2 sequence (P10827 1-410 isoform P10827-2): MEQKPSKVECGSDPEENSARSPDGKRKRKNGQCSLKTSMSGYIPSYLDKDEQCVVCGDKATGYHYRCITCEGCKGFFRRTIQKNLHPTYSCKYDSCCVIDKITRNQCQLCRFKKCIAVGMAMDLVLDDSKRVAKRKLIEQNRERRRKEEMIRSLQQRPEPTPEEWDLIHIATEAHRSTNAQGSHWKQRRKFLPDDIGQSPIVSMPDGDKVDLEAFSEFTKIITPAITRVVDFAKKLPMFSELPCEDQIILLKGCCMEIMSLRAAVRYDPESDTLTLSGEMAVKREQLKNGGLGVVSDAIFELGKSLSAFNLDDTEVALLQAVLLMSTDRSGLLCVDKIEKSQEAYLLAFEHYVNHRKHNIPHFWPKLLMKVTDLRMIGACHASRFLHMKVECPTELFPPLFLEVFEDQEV
# [18] = Pharmacokinetic evaluation in rats, intragastric infusion; format: in vivo; conditions: SD rats, intragastric 2 mg/kg
# Method: Drug Preparation: a certain amount of the drug was taken and added into a 2% Klucel LF+0.1% Tween 80 aqueous solution, to prepare a clear solution or a uniform suspension.
# Dosage: SD rats were fasted overnight and given the drug by intragastric infusion at an administrated dose of 2 mg/kg and an administrated volume of 10 mL/kg each.
# Operation: rats were dosed by intragastric infusion with the compounds. […] The heparinized sample tubes were then stored at −20° C., and the rats were allowed to eat food 2 h after the dosage.
# Determination of contents of the compounds to be tested in the plasma of rats after intragastric infusion of the drugs at different concentrations: the plasma samples were thawed at room temperature, 50 μL each was taken and added into 130 μL of an internal standard working solution (1000 ng/mL, acetonitrile, tolbutamide), and the mixture was whirled for about 1 min and then centrifugated at 4° C. and 13000 rpm for 10 min. 50 μL of the supernatant was taken and mixed with 100 μL of 50% acetonitrile water, and then introduced for LC/MS/MS analysis.
# [19] = other FXR agonists; cited from earlier work
# [20] = test system: FXR-regulated gene expression (SHP, BSEP, FGF-19) in human HuH7 hepatoma cells; assay: Cell-based RNA assay of FXR-regulated gene expression; conditions: Huh-7, 11 h at 37° C., RT-qPCR
# Method: […]. See Kawamata et al JBC 278 (11)[…] (2003). […]. After 30 min at RT, cAMP was measured using an HTRF readout. EC50 values for FXR-regulated gene expression were determined using a cell-based RNA assay. […] After 11 h at 37° C., RNA was isolated and analyzed by RT-qPCR using primers to FXR-related genes: small heterodimer partner (SHP), bile salt export pump (BSEP) and fibroblast growth factor 19 (FGF-19).
# [21] = 10, 30, 100 mg/kg oral daily, 28 days
# [22] = 10, 30, 100 mg/kg oral daily, 28 days, H&E
# [23] = 10, 30, or 100 mg/kg oral daily, 28 days
# [24] = single oral dose, Compound 1 10 mg/kg, OCA 30 mg/kg
smiles,measurement,setting,value
Cn1cc(C(=O)O)c2ccc(N3CCC(OCc4c(-c5c(Cl)cccc5Cl)noc4C4CC4)CC3)cc21 [Compound 1],Hepatic Extraction,[1],47.3 ± 0.78%
same,In vitro Metabolic CLpred,[1],26.2 ± 0.5 mL/min/kg
same,CL,[2]; IV 1 mg/kg,9 mL/min/kg
same,Oral Bioavailability,[2]; oral 3 mg/kg vs IV 1 mg/kg,82%
same,BSEP liver expression (CPM) Relative to Vehicle,"[3]; 30 mg/kg, NASH mice",5.1
same,CYP7A1 liver expression (CPM) Relative to Vehicle,"[3]; 30 mg/kg, NASH mice",0.02
same,CYP8B1 liver expression (CPM) Relative to Vehicle,"[3]; 30 mg/kg, NASH mice",0.007
same,OST-B liver expression (CPM) Relative to Vehicle,"[3]; 30 mg/kg, NASH mice",135.7
same,SHP liver expression (CPM) Relative to Vehicle,"[3]; 30 mg/kg, NASH mice",4.6
same,liver triglyceride levels,[3]; 100 mg/kg,statistically significant reduced
same,serum triglyceride concentration,[3]; 100 mg/kg,statically significant reduction
same,serum ALT level,[3]; [21],reduced
same,serum AST level,[3]; [21],reduced
same,ballooning vs untreated NASH mice,[3]; [22],significantly reduced
same,inflammation vs untreated NASH mice,[3]; [22],significantly reduced
same,steatosis vs untreated NASH mice,[3]; [22],significantly reduced
same,serum total cholesterol level,"[3]; 10, 30, and 100 mg/kg",statistically significant reduction
same,"collagen, type 1, alpha 1 expression in the liver vs control NASH mice","[3]; 10, 30, or 100 mg/kg",decreased
same,NAFLD Activity Score (NAS) vs untreated NASH mice,[3]; [23],significantly lower
same,liver fibrosis (Sirius Red) vs untreated NASH control,[3]; [23],statistically significant reduced fibrosis
same,expression of inflammatory and fibrosis related genes,[3]; mouse model of NASH,reduced
same,major elimination pathway,[4],biliary excretion
same,metabolite formed,[4],acyl glucuronide metabolite
same,Hepatic Extraction,[5],67.0 ± 1.73%
same,In vitro Metabolic CLpred,[5],13.8 ± 3.67 mL/min/kg
same,tissues with the most radioactive material,[6],"Liver, small intestine, and cecum had the most radioactive material"
same,Pruritus,[7]; 25 mg daily for 7 days,No
same,Pruritus,[7]; 75 mg daily for 7 days,No
same,Pruritus,[7]; 150 mg daily for 7 days,No
same,% 7AC4 suppression at nadir,[7]; oral 25 mg daily for 7 days,75%
same,% 7AC4 suppression at nadir,[7]; oral 75 mg daily for 7 days,82%
same,% 7AC4 suppression at nadir,[7]; oral 150 mg daily for 7 days,93%
same,Pruritus,[7]; subjects taking the highest doses of Compound 1,no pruritus was observed
same,pharmacodynamics biomarker 7AC4 after repeated oral dosing,[8],sustained suppression
same,incidences of pruritus,[9],no incidences of pruritus
same,Hepatic Extraction,[10],71.0 ± 2.49%
same,In vitro Metabolic CLpred,[10],22 ± 0.83 mL/min/kg
same,Hepatic Extraction,[11],64.4 ± 0.28%
same,In vitro Metabolic CLpred,[11],28 ± 0.17 mL/min/kg
same,Hepatic Extraction,[12],80.7 ± 1.02%
same,In vitro Metabolic CLpred,[12],72.7 ± 1 mL/min/kg
same,Oral Bioavailability,[13],21%
same,"induction of FXR-specific genes, liver vs ileum (RT-qPCR)",[14]; single oral 10 mg/kg,preferentially induces FXR-specific genes in the liver
same,number of differentially expressed NASH-related genes modulated vs vehicle (liver RNAseq),[14]; [24],500
same,change in distribution to the liver on co-administration of rifampin,[15],does not result in a significant change
N#Cc1nn(-c2cc(Cl)c(Oc3n[nH]c(=O)c4c3CCCC4)c(Cl)c2)c(=O)[nH]c1=O [Compound 3],THRα/β selectivity (factor),[16],> 8.1
same,IC50,[17],> 10000 nM
CC1(C)CCc2c(Oc3c(Cl)cc(-n4cc(C#N)c(=O)[nH]c4=O)cc3Cl)n[nH]c(=O)c21 [Compound 6],Curve area,[18],9242 ± 1245 ng·h/mL
same,Time to peak,[18],5.33 ± 1.15 h
N#Cc1nn(-c2cc(Cl)c(Oc3n[nH]c(=O)c4c(Cl)cccc34)c(Cl)c2)c(=O)[nH]c1=O [Compound 7],THRα/β selectivity (factor),[16],>6.80
same,IC50,[17],> 10000 nM
"CC[C@H]1[C@@H](O)[C@@H]2[C@H](CC[C@]3(C)[C@@H]([C@H](C)CCC(=O)O)CC[C@@H]23)[C@@]2(C)CC[C@@H](O)C[C@@H]12 [OCA, obeticholic acid]",pruritus in longer term studies,[19],known to result in pruritus
same,EC50,[20]; read-out: BSEP Gene induction/HuH7 EC50,200 nM
same,EC50,[20]; read-out: FGF-19 Gene Induction/HuH7 EC50,130 nM
same,EC50,[20]; read-out: SHP Gene induction/HuH7 EC50,200 nM
same,number of global pathways enriched (liver RNAseq),[14]; [24],6
same,number of differentially expressed NASH-related genes modulated vs vehicle (liver RNAseq),[14]; [24],44
"CC(C)c1cc(Oc2c(Cl)cc(-n3nc(C#N)c(=O)[nH]c3=O)cc2Cl)n[nH]c1=O [Reference compound, 2-[3,5-Dichloro-4-(5-isopropyl-6-oxo-1,6-dihydropyridazin-3-yloxy)phenyl]-3,5-dioxo-2,3,4,5-tetrahydro[1,2,4]triazine-6-carbonitrile, reference compound]",Curve area,[18],12854 ± 961 ng·h/mL
same,Peak blood drug concentration,[18],1163 ± 97.1 ng/mL
same,Time to peak,[18],5.3 ± 1.15 h
O=C(O)c1ccnc(N2CC(O)(c3ccc(OCc4c(-c5c(Cl)cccc5Cl)noc4C4CC4)cc3Cl)C2)c1 [cilofexor],pruritus in longer term studies,[19],known to result in pruritus
O=C(O)c1cc(F)c2nc(N3[C@@H]4CC[C@H]3C[C@@H](OCc3c(-c5ccccc5OC(F)(F)F)noc3C3CC3)C4)sc2c1 [tropifexor],pruritus in longer term studies,[19],known to result in pruritus
